Legend:
[1] = system: skin HaCat keratinocytes; assay: Cell growth inhibition assay, HaCat; type: cell-based, human; details: 24 h incubation; mean ± SD
Experimental: Cell growth inhibition analyses were performed on human melanoma Colo38 cells and skin HaCat keratinocytes. Human melanoma Colo38 cells were kindly given by Dr. Patrizio Giacomini (Laboratory of Immunology, Regina Elena Institute, Rome, Italy). HaCat cells were obtained from Istituto Zooprofilattico Sperimentale della Lombardia e dell’Emilia-Romagna, Brescia, Italy. Cells were seeded at 40,000 cells/mL and 25,000 cells/mL, respectively. Colo38 cells were maintained in RPMI 1640, supplemented with 10% foetal bovine serum (FBS), penicillin (100 Units/mL), and streptomycin (100 µg/mL). HaCat cells were maintained in DMEM, supplemented with 10% fatal bovine serum (FBS), penicillin (100 Units/mL), streptomycin (100 µg/mL) and glutamine (2 mM); the incubation was performed at 37 °C in a 5% CO2 atmosphere. Compounds were dissolved in DMSO to obtain 50 mM stock solutions and diluted before cell treatment in MeOH. The tested compounds were added at serial dilutions to the cell cultures (from 0.1 to 100 µM) and incubated for 24 h further. Cells were then harvested, suspended in physiological solution, and counted with a Z2 Coulter Counter (Coulter Electronics, Hialeah, FL, USA). The number of cells/mL and the IC50 values were determined when untreated cells were in the log phase of cell growth. Samples of vehicles and untreated cells were included in each plate. Cisplatin was used as positive control for the HaCat cells, while N1-(4-arylidene)-1H-(2-OH-4-N(Et)2-phenyl)-[d]imidazole-2-carbohydrazide was used as positive control for the Colo38 cell line.

[2] = Ferric reducing antioxidant power (FRAP) test; type: biochemical; details: Trolox equivalents; mean ± SD
Experimental: The FRAP test, based on a colorimetric reaction, can assess the ability of a sample to reduce ferric ions to ferrous ions when complexed with 2,4,6-trispiridyl-s-triazine (TPTZ). The FRAP solution consisted of 0.1 M acetate buffer (pH 3.6), 10 mmol/L of TPTZ in 40 mM HCl and a 20 mM solution of FeCl3, in a 10:1:1 ratio. A 1.9 mL volume of the FRAP solution was incubated with 0.1 mL of the sample solution at 37 °C for 10 min. The absorbance was then read with a UV-Vis spectrophotometer at a wavelength of 593 nm, which corresponds to the maximum absorbance peak of the Fe^2+-TPTZ complex. Trolox® was used as a standard, and ferulic acid was used as positive control, and the results are expressed as µmol TE/g.

[3] = DPPH radical scavenging activity; type: biochemical; details: values in brackets; mean ± SD
Experimental: For all the compounds, 0.750 mL of a DMSO-MeOH solution mixed with 1.5 mL of DPPH solution (0.004%) in MeOH was analysed. The samples were kept in the dark at room temperature for 30 min and then analysed with a spectrophotometer by reading the absorbance at 517 nm (lambda max of the absorption spectrum of the DPPH radical). Equation (5) was used to obtain the percentage inhibition (%) of the radical: DPPH radical-scavenging capacity (%) = [1 − (A1 − A2)/A0] × 100%(5) where A2 is the blank (MeOH), and A1 and A0 are, respectively, the recorded absorbances of the sample and control (0.750 MeOH and 1.5 mL DPPH solution), directly proportional to the concentration of residual DPPH. An initial screening was performed by testing all compounds at a concentration of 1 mg/mL (Trolox® was used as the standard); subsequently, compounds showing >90% radical inhibition were further tested to calculate their IC50 value (expressed in µg/mL). Ferulic acid was used as positive control. A linear regression was performed to calculate the sample concentration able to eliminate 50% of DPPH free radicals.

[4] = ORAC assay; type: biochemical; details: Trolox equivalents; mean ± SD
Experimental: The ORAC assay was performed based on the previously modified Hong procedure. The sodium salt of fluorescein (85 nM) was used as a target for free radical attack with 2,2′-azobis(2-amidinopropane) dichloride (AAPH) as a peroxyl radical generator in the final assay mixture (total volume of 0.2 mL). The test involves a calibration curve of Trolox (standard control) with different concentrations (40 to 240 μM). The compounds tested were first dissolved in DMSO:MeOH and then diluted in phosphate buffer solution pH 7.4. Fluorescence measurements were performed at 37 °C and recorded at 5-min intervals up to 30 min after the addition of AAPH. ORAC values were calculated as the difference in areas under the fluorescein quenching curves between the blank and the sample and were expressed as µmol Trolox equivalents (TE) per gram of dried sample.

[5] = system: primary human monocytes; assay: Lipid mediator (LM) formation in primary human monocytes; type: cell-based; details: diclofenac 1 µM; A23187 2.5 µM, 30 min
Text: Monocytes and polymorphonuclear leukocytes (PMNL) were freshly isolated from human blood. Human blood and leukocyte concentrates were provided by the Institute for Transfusion Medicine of the University Hospital Jena (Thuringia, Germany). The protocols for experiments with human blood and blood cells were approved by the ethical commission of the Friedrich Schiller University of Jena. Following blood density centrifugation and separation of cell populations, peripheral blood mononuclear cells (PBMC) were left to adhere for 1 h to cell culture flasks (monocyte-enriched PBMC). Non-adherent cells were washed off from the adherent monocytes, before pre-incubating monocytes (5 × 10^6 cells/mL) with the test compounds for 10 min at 37 °C. LM formation was elicited with A23187 (2.5 µM) and CaCl2 (1 mM) over 30 min. The reaction was stopped with 1 mL of ice-cold methanol containing 10 µL of deuterium-labelled internal LM standards (200 nM d8-5S-HETE, d4-LTB4, d5-LXA4, d5-RvD2, d4-PGE2 and 10 µM d8-AA). LMs were extracted using Sep-Pak C18 35 cc Vac Cartridges (Waters, Milford, MA, USA) and analysed by UPLC-MS/MS as described by Pein et al..
The ability to modulate LM formation was screened in primary human monocytes expressing the enzymes required for PGE2, LTB4, and 12-HETE production (Figure 2A). Cells were pre-treated with the test compounds BZTst1–6 (10 µM) or the reference COX inhibitor diclofenac (1 µM) for 10 min prior to stimulation with the calcium ionophore A23187 (2.5 µM) for 30 min.

`N.N.[Cl][Pt][Cl]` [Cisplatin, reference compound] gave an IC50 [1] of 2 ± 0.4 µM.
In the case of `COc1cc(/C=C/C(=O)O)ccc1O` [Ferulic Acid, reference compound], the FRAP [2] is reported as 6872.60 ± 10.70 µmolTE/g, the “DPPH IC50 (sample concentration able to scavenge 50% of the DPPH radical)” value [3] is reported as “(9.90 ± 0.70) µg/mL” and the ORAC [4] is reported as 15,906.40 ± 14.20 µmolTE/g.
With `O=C(O)Cc1ccccc1Nc1c(Cl)cccc1Cl` [diclofenac, reference compound] the PGE2 formation [5] was “significantly downregulated”.

Source: PMC11504387, “Synthesis and Biological Activity Assessment of 2-Styrylbenzothiazoles as Potential Multifunctional Therapeutic Agents” (Antioxidants, 2024)
